Here are results for five compounds from article PMC12670396, “Crizotinib- or Ceritinib-Conjugated Platinum(IV) Prodrugs As Potent Multiaction Agents Inducing Antiproliferative Effects in 2D and 3D Cancer Cell Models” (Journal of Medicinal Chemistry, 2025).

For data set [1], the system named is hTERT-HPNE. The data set can be described thus: MTT cytotoxicity in noncancerous cells, 72 h. In kind it is cell-based, human. On the procedure: (§1) Growth inhibition activity in cancer cell lines was compared with the activity to inhibit the proliferation of normal (noncancerous) cells, namely MRC-5, IMR-90, hTERT-HPNE, and MCF10A cells. Selectivity indexes (SI) were calculated as (IC50 in noncancerous cells)/(average IC50 in cancer cells). […] We further assessed the toxicity of several of the compounds in hepatocyte-like cells (HLC) generated from human pluripotent cells.
(§2) Cytotoxicity in hepatocyte-like cells (HLC). STEMdiff Hepatocyte Kit was used to generate HLC from human pluripotent stem cells. Cytotoxicity of several of the tested compounds in HLC was evaluated using the sulphorhodamine B assay.

The test system of data set [2] is MRC-5. Nature of the data set: MTT cytotoxicity in noncancerous cells, 72 h. In kind it is cell-based, human. Particulars: MRC-5, MTT. On the procedure:
as §1, §2

Data set [3] relates to IMR-90. Nature of the data set: MTT cytotoxicity in noncancerous cells, 72 h. In kind it is cell-based, human. To be noted: IMR-90, MTT. On the procedure:
as §1, §2

In data set [4] the test system is MCF10A. The data set can be described thus: MTT cytotoxicity in noncancerous cells, 72 h. In kind it is cell-based, human. The method, then: as §1, §2
The test system of data set [5] is U87-MG. The data set can be described thus: MTT cytotoxic/antiproliferative activity, 72 h. The data set is classed as cell-based, human. To be noted: MTT, 72 h. The method, then: (§3) A panel of six cancer cell lines was used to evaluate the cytotoxic potential of the investigated compounds.
as §2

For data set [6], the system named is RD. Nature of the data set: MTT cytotoxic/antiproliferative activity, 72 h. The data set is classed as cell-based, human. Particulars: MTT, 72 h.
The nature of data set [7]: Reduction by L-ascorbic acid in phosphate buffer (RP-HPLC). To be noted: 10 equiv L-ascorbic acid, 10% DMSO in 100 mM phosphate buffer pH 7.4, 37 °C. The data set is classed as physicochemical. The method, then: The reduction of Pt(IV) complexes was performed by reacting with 10 equiv of L-ascorbic acid in 10% DMSO in 100 mM phosphate buffer (pH 7.4) at 37 °C, and was monitored by reverse-phase analytical HPLC. The half-lives for the reduction were calculated from the decreasing peak areas as a function of time.
The reduction of the Pt(IV) complexes was performed in the presence of 10 equiv of L-ascorbic acid (AA) in phosphate buffer (100 mM, pH 7.4) at 37 °C using reverse-phase analytical HPLC. […] The platinum complexes were dissolved in 10% DMSO with 50% MeOH and added to 100 mM phosphate buffer (pH 7.4). […] The samples were injected and stored at 37 °C throughout the experiment.

Data set [8] concerns MDA-MB-231. Nature of the data set: MTT cytotoxic/antiproliferative activity, 72 h. To be noted: MDA-MB-231, MTT, 72 h. The data set is classed as cell-based, human.
Data set [9] deals with CHOK1. Nature of the data set: MTT cytotoxicity in NER-proficient cells, 72 h. In kind it is cell-based, Chinese hamster.
Text: The cytotoxicity assay was also employed to determine whether DNA damage might be involved in the mechanism of action of the tested compounds. The Chinese hamster ovary MMC2 cell line harbors the ERCC3/XPB mutation, which renders it deficient in nucleotide excision repair (NER), whereas the parent line CHOK1 is proficient in this repair process. Thus, the MMC2 line is often more sensitive to agents causing DNA damage, especially NER-reparable DNA damage, than CHOK1. […] Phosphorylation of H2AX is a commonly used marker of DNA damage.
as §2

A short description of data set [10]: Stability in RPMI cell culture medium with serum (HPLC). To be noted: for intact Pt(IV) prodrug still present: after 3 days in the media. On the procedure:
Two conditions must be met for Pt(IV) complexes to serve as true prodrugs: they must remain stable in biological fluids and should be activated by reduction within the cancer cells to release the bioactive components in their active form, thereby facilitating the rapid onset of cytotoxic effects. […] The reduction in the area of the HPLC peak of the compounds was monitored as a function of time, and their half-lives were calculated (Table and Figures S26,S27).
The stock solutions were prepared by dissolving the compounds in a 1:9 (v/v) mixture of DMSO and RPMI media. After preparation, the samples were injected and stored at 37 °C throughout the experiment. The final concentration of the complexes used for the experiment is 50–60 μM.

The subject of data set [11] is panel of six cancer cell lines. The data set can be described thus: MTT, panel of six cancer cell lines (average, ranges). The data set is classed as cell-based, human. To be noted: average over six cancer cell lines; read-out: av cancer (average IC50 in cancer cells). On the procedure: as §3, §2
The subject of data set [12] is HCT116. Nature of the data set: MTT cytotoxic/antiproliferative activity, 72 h. In kind it is cell-based, human. To be noted: HCT116, MTT, 72 h.
The subject of data set [13] is MMC2. Nature of the data set: MTT cytotoxicity in NER-deficient cells, 72 h. The data set is classed as cell-based, Chinese hamster. Particulars: for Index F: IC50(CHOK1)/IC50(MMC2); for IC50: MMC2 (NER deficient), MTT, 72 h. An excerpt:
The cytotoxicity assay was also employed to determine whether DNA damage might be involved in the mechanism of action of the tested compounds. The Chinese hamster ovary MMC2 cell line harbors the ERCC3/XPB mutation, which renders it deficient in nucleotide excision repair (NER), whereas the parent line CHOK1 is proficient in this repair process. Thus, the MMC2 line is often more sensitive to agents causing DNA damage, especially NER-reparable DNA damage, than CHOK1. […] Phosphorylation of H2AX is a commonly used marker of DNA damage. […]

The test system of data set [14] is normal (noncancerous) cells MRC-5, IMR-90, hTERT-HPNE, MCF10A. The data set can be described thus: MTT, noncancerous cell lines (average, selectivity index). The data set is classed as cell-based, human. Particulars: for SI, selectivity index: IC50(normal cells)/averageIC50(cancer cells); for IC50: average over MRC-5, IMR-90, hTERT-HPNE, MCF10A, read-out: av norm (average IC50 in noncancerous cells). The method, then:
Growth inhibition activity in cancer cell lines was compared with the activity to inhibit the proliferation of normal (noncancerous) cells, namely MRC-5, IMR-90, hTERT-HPNE, and MCF10A cells. Selectivity indexes (SI) were calculated as (IC50 in noncancerous cells)/(average IC50 in cancer cells). […] We further assessed the toxicity of several of the compounds in hepatocyte-like cells (HLC) generated from human pluripotent cells. […]

Data set [15] relates to A549. The data set can be described thus: MTT cytotoxic/antiproliferative activity, 72 h. Particulars: A549, MTT, 72 h. The data set is classed as cell-based, human.
Data set [16] has as its system NCI-H2228. Nature of the data set: MTT cytotoxic/antiproliferative activity, 72 h. The data set is classed as cell-based, human. To be noted: NCI-H2228, MTT, 72 h.
Setting [17] is: 10% DMSO in RPMI cell culture medium containing serum, 37 °C, HPLC.

Molecules are shown by their SMILES. Bounds are passed on as bounds.

`C[C@@H](Oc1cc(-c2cnn(C3CCN(C(=O)[O][Pt]4([O]C(=O)CCCc5ccccc5)[O]C(=O)C(=O)[O]4)CC3)c2)cnc1N)c1c(Cl)ccc(F)c1Cl.N[C@@H]1CCCC[C@H]1N` [compound 4, ctc-[Pt(DACH)(crizotinib)(PhB)(Ox)]]: the IC50 in data set [1] is 3200 ± 600 nM; in data set [2] it was 3100 ± 900 nM; in data set [3] it was 2900 ± 400 nM; in [4] it was 2400 ± 500 nM; in [5] it was 1800 ± 400 nM; in data set [6] it was 1600 ± 200 nM. For the same compound, the IC50 in data set [8] is 1500 ± 500 nM; in data set [9] it was 1400 ± 400 nM; in [11], 1500 nM; in [12] it was 1000 ± 200 nM; in [13] it was 1300 ± 400 nM; in [14], 2900 nM. Besides, the IC50 was found to be 1500 ± 400 nM in data set [15] and 1300 ± 400 nM in data set [16]. Besides, the “reduction half-life (t 1/2)” value in data set [7] turned out to be 11.5 h. Moreover, the “intact Pt(IV) prodrug still present” value in data set [10] (37 °C) is “more than 80%”. The “stability half-life (t 1/2)” value in data set [10] (serum) was over 75 h. The “Index F” value in data set [13] stood at 1.08. The “SI, selectivity index” value in [14] was found to be 1.9.
`Cc1cc(Nc2ncc(Cl)c(Nc3ccccc3S(=O)(=O)C(C)C)n2)c(OC(C)C)cc1C1CCN(C(=O)[O][Pt]([OH])([Cl])[Cl])CC1.N.N` [compound 6, ctc-[Pt(NH3)2(ceritinib)(OH)Cl2]]: the IC50 in data set [1] was found to be 2700 ± 500 nM; in data set [2], 2600 ± 900 nM; in data set [3], 4100 ± 900 nM; in data set [4], 2600 ± 200 nM; in data set [5], 800 ± 200 nM; in data set [6] it was 600 ± 200 nM. Also, the IC50 in data set [8] was 1100 ± 300 nM; in data set [9], 1100 ± 200 nM; in [11] it was 630 nM; in data set [12] it was 700 ± 300 nM; in data set [13] it was 290 ± 90 nM; in data set [14], 3000 nM. In addition, the results for the concentration for half-maximal inhibition (IC50) in data set [15] and in data set [16] were 350 ± 60 nM and 210 ± 60 nM, respectively. Besides, the “reduction half-life (t 1/2)” value in [7] stood at 2.2 h. In addition, the “stability half-life (t 1/2)” value in [10] (setting [17]) worked out at 48 h. In data set [13], the “Index F” value is 3.79(*). Moreover, in data set [14], the “SI, selectivity index” value is given as 4.8.
In the case of `CC(Oc1cc(-c2cnn(C3CCN(C(=O)[O][Pt]([OH])([Cl])[Cl])CC3)c2)cnc1N)c1c(Cl)ccc(F)c1Cl.N.N` (stereo not drawn) [compound 2, ctc-[Pt(NH3)2(crizotinib)(OH)Cl2]], the IC50 in [1] was determined as 5200 ± 600 nM; in data set [2], 4200 ± 900 nM; in data set [3] it was 7400 ± 700 nM; in data set [4], 5100 ± 600 nM; in [5], 2000 ± 700 nM; in [6] it was 2000 ± 400 nM. Besides, the concentration for half-maximal inhibition (IC50) in [8] was 1900 ± 600 nM; in [9], 1500 ± 600 nM; in [11], 1600 nM; in [12], 2100 ± 500 nM; in data set [13], 770 ± 90 nM; in [14], 5500 nM. The figures for the IC50 in [15] and in data set [16] were 800 ± 100 nM and 740 ± 80 nM, respectively. Also, the “reduction half-life (t 1/2)” value in data set [7] was determined as 2.7 h. For the same compound, the “stability half-life (t 1/2)” value in [10] (serum) was 75 h. Further, in data set [13], the “Index F” value is on record as 1.95. Moreover, in [14], the “SI, selectivity index” value was 3.4.
Take `O=C1[O][Pt]2([NH][C@@H]3CCCC[C@H]3[NH]2)[O]C1=O` [OxPt, oxaliplatin, reference compound]: the IC50 in data set [6] was determined as 4300 ± 500 nM; in data set [8], 6200 ± 900 nM; in data set [12] it was 1300 ± 100 nM; in [15] it was 1600 ± 600 nM; in [16] it was 3800 ± 400 nM.
As for `Cc1cc(Nc2ncc(Cl)c(Nc3ccccc3S(=O)(=O)C(C)C)n2)c(OC(C)C)cc1C1CCN(C(=O)[O][Pt]2([O]C(=O)CCCc3ccccc3)[O]C(=O)C(=O)[O]2)CC1.N[C@@H]1CCCC[C@H]1N` [compound 8, ctc-[Pt(DACH)(ceritinib)(PhB)(Ox)]], the IC50 in data set [1] was found to be 3100 ± 600 nM; in data set [2] it was 2300 ± 600 nM; in data set [3], 5000 ± 600 nM; in [4], 2900 ± 400 nM; in data set [6] it was 2200 ± 400 nM; in data set [8] it was 1500 ± 400 nM. Further, the IC50 in data set [9] came out at 1100 ± 200 nM; in data set [11], 1300 nM; in [12] it was 880 ± 60 nM; in data set [13] it was 900 ± 200 nM; in data set [14], 3300 nM; in data set [15] it was 1300 ± 200 nM. In addition, in [16], inhibition was half-maximal at 800 ± 300 nM (IC50). The “reduction half-life (t 1/2)” value in [7] was found to be 12.5 h. Besides, the “stability half-life (t 1/2)” value in data set [10] (setting [17]) is on record as over 75 h. In addition, the “intact Pt(IV) prodrug still present” value in [10] (37 °C) is given as over 65%. Further, the “Index F” value in data set [13] was 1.22. The “SI, selectivity index” value in data set [14] was 2.5.

By IC50 is commonly meant the concentration that gives 50% inhibition.
